Measured values as given in patent US8163771B2, “11 β-HSD1 modulators” (Exelixis, Inc., priority 2008, dated 2012).

Biological target: T1, recombinant human 11 β-HSD1 (Homo sapiens, UniProt P28845)
T1 construct: made in house; host or cells: E. coli
Experiment: 11 β-HSD1 SPA Assay (Scintillation Proximity Assay)
Assay type: biochemical
In short: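 E. coli-expressed human enzyme (30-100 nM) with tritiated cortisone 40 nM and NADPH 1 mM in HEPES buffer pH7.4, 2 hours at room temperature. Stopped with protein A SPA beads carrying anti-cortisol antibody and glycyrrhetinic acid; counted after overnight incubation. IC50 from percent inhibition between no-enzyme and no-compound signals.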

T1 sequence (P28845 whole entry): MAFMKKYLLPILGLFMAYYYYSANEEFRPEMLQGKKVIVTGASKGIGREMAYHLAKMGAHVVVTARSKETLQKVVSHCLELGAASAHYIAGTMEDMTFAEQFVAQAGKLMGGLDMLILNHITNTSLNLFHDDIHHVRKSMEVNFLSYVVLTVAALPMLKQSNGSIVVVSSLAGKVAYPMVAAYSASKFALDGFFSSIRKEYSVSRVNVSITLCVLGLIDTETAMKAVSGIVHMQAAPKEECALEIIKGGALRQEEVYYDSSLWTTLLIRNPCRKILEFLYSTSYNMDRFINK

Structure (SMILES) | IC50 [nM]
CC(C)(Oc1ccc(Cl)cc1C(F)F)C(=O)NC1CC2CCC(C1)N2c1ccc(C(=O)NC2CC2(F)F)cn1 (stereo not drawn) [Example 393, 6-[3-endo-({2-[4-chloro-2-(difluoromethyl)phenoxy]-2-methylpropanoyl}amino)-8-azabicyclo[3.2.1]oct-8-yl]-N-(2,2-difluorocyclopropyl)pyridine-3-carboxamide] | < 200
CC(C)(Oc1ncc(C(F)(F)F)cc1Cl)C(=O)N[C@H]1C[C@H]2CC[C@@H](C1)N2c1ccc(S(C)(=O)=O)cn1 [Example 248, 2-{[3-chloro-5-(trifluoromethyl)pyridin-2-yl]oxy}-2-methyl-N-{8-[5-(methylsulfonyl)pyridin-2-yl]-8-azabicyclo[3.2.1]oct-3-endo-yl}propanamide] | < 2000
CC(C)(Oc1ccc(C(F)(F)F)cc1)C(=O)N[C@H]1C[C@H]2CC[C@@H](C1)N2c1ccc(S(C)(=O)=O)cn1 [Example 243, 2-methyl-N-{8-[5-(methylsulfonyl)pyridin-2-yl]-8-azabicyclo[3.2.1]oct-3-endo-yl}-2-{[4-(trifluoromethyl)phenyl]oxy}propanamide] | < 2000
Cc1nc(N2[C@@H]3CC[C@H]2C[C@@H](NC(=O)C(C)(C)Oc2ccc(Cl)cc2)C3)ccc1C(=O)NC1CC1 [Example 51, 6-[3-endo-({2-[(4-chlorophenyl)oxy]-2-methylpropanoyl}amino)-8-azabicyclo[3.2.1]oct-8-yl]-N-cyclopropyl-2-methylpyridine-3-carboxamide] | < 2000
CC(C)(Oc1ccc(Cl)cc1Cl)C(=O)N[C@H]1C[C@H]2CC[C@@H](C1)N2c1ccc(C(=O)NC2CC2)cc1 [Example 132, N-cyclopropyl-4-[3-endo-({2-[(2,4-dichlorophenyl)oxy]-2-methylpropanoyl}amino)-8-azabicyclo[3.2.1]oct-8-yl]benzamide] | < 200
CC(C)(COc1ccc(Cl)cc1C(F)(F)F)C(=O)N[C@H]1C[C@H]2CC[C@@H](C1)N2c1ccc(C(=O)NCC(F)(F)F)cn1 [Example 312, 6-{3-endo-[(3-{[4-chloro-2-(trifluoromethyl)phenyl]oxy}-2,2-dimethylpropanoyl)amino]-8-azabicyclo[3.2.1]oct-8-yl}-N-(2,2,2-trifluoroethyl)pyridine-3-carboxamide] | < 200
CC(C)(Oc1c(F)cc(F)cc1F)C(=O)N[C@H]1C[C@H]2CC[C@@H](C1)N2c1ccc(S(C)(=O)=O)cn1 [Example 258, 2-methyl-N-{8-[5-(methylsulfonyl)pyridin-2-yl]-8-azabicyclo[3.2.1]oct-3-endo-yl}-2-[(2,4,6-trifluorophenyl)oxy]propanamide] | < 200
N#Cc1ccnc(N2[C@@H]3CC[C@H]2C[C@@H](NC(=O)C2(c4ccc(Cl)cc4)CC2)C3)c1 [Example 18, 1-(4-chlorophenyl)-N-[8-(4-cyanopyridin-2-yl)-8-azabicyclo[3.2.1]oct-3-endo-yl]cyclopropanecarboxamide] | < 2000
CC(C)(Oc1ccc(Cl)cc1Cl)C(=O)N[C@H]1C[C@H]2CC[C@@H](C1)N2Cc1ccc(C(N)=O)cc1 [Example 295, 4-{[3-endo-({2-[(2,4-dichlorophenyl)oxy]-2-methylpropanoyl}amino)-8-azabicyclo[3.2.1]oct-8-yl]methyl}benzamide] | < 2000
C[C@H](CO)NC(=O)c1ccc(N2C3CCC2CC(NC(=O)C(C)(C)Oc2ccc(Cl)cc2Cl)C3)nc1 (stereo partly drawn) [Example 398, 6-(3-endo-{[2-(2,4-dichlorophenoxy)-2-methylpropanoyl]amino}-8-azabicyclo[3.2.1]oct-8-yl)-N-[(2R)-1-hydroxypropan-2-yl]pyridine-3-carboxamide] | < 200
CC(C)(Oc1ccc(OC(F)(F)F)cc1)C(=O)N[C@H]1C[C@H]2CC[C@@H](C1)N2c1ccc(C(=O)NCC(F)(F)F)cn1 [Example 128, 6-(3-endo-{[2-methyl-2-({4-[(trifluoromethyl)oxy]phenyl}oxy)propanoyl]amino}-8-azabicyclo[3.2.1]oct-8-yl)-N-(2,2,2-trifluoroethyl)pyridine-3-carboxamide] | < 200
CC(C)(Oc1ccc(Cl)cc1Cl)C(=O)N1[C@@H]2CC[C@H]1C[C@@H](Nc1ccc(C(N)=O)cn1)C2 [Example 302, 6-[(8-{2-[(2,4-dichlorophenyl)oxy]-2-methylpropanoyl}-8-azabicyclo[3.2.1]oct-3-endo-yl)amino]pyridine-3-carboxamide] | < 200
CC(C)(Oc1ccc(Cl)cc1OC(F)(F)F)C(=O)N[C@H]1C[C@H]2CC[C@@H](C1)N2c1ccc(C(=O)NCC(F)(F)F)cn1 [Example 363, 6-[3-endo-({2-[4-chloro-2-(trifluoromethoxy)phenoxy]-2-methylpropanoyl}amino)-8-azabicyclo[3.2.1]oct-8-yl]-N-(2,2,2-trifluoroethyl)pyridine-3-carboxamide] | < 200
CC(C)(Oc1ccc2ccccc2c1)C(=O)N[C@H]1C[C@H]2CC[C@@H](C1)N2c1ccc(C(=O)NCC(F)(F)F)cn1 [Example 338, 6-(3-endo-{[2-methyl-2-(naphthalen-2-yloxy)propanoyl]amino}-8-azabicyclo[3.2.1]oct-8-yl)-N-(2,2,2-trifluoroethyl)pyridine-3-carboxamide] | < 200
O=C(NC1CC1)c1ccc(N2C3CCC2CC(NC(=O)C2(c4ccc(Cl)cc4)CCCC2)C3)nc1 (stereo not drawn) [Example 7, 6-[3-({[1-(4-chlorophenyl)cyclopentyl]carbonyl}amino)-8-azabicyclo[3.2.1]oct-8-yl]-N-cyclopropylpyridine-3-carboxamide] | < 200
CC(C)(Oc1ccc(Cl)c(Cl)c1)C(=O)N[C@H]1C[C@H]2CC[C@@H](C1)N2c1ccc(NS(C)(=O)=O)cc1 [Example 329, 2-[(3,4-dichlorophenyl)oxy]-2-methyl-N-(8-{4-[(methylsulfonyl)amino]phenyl}-8-azabicyclo[3.2.1]oct-3-endo-yl)propanamide] | < 200
CC(C)(Oc1ccc(Cl)cc1Cl)C(=O)N[C@H]1C[C@H]2CC[C@@H](C1)N2c1ccc(S(N)(=O)=O)cn1 [Example 125, N-{8-[5-(aminosulfonyl)pyridin-2-yl]-8-azabicyclo[3.2.1]oct-3-endo-yl}-2-[(2,4-dichlorophenyl)oxy]-2-methylpropanamide] | < 200
CC(C)(Oc1cc(F)ccc1C(F)(F)F)C(=O)N[C@H]1C[C@H]2CC[C@@H](C1)N2c1ccc(C(=O)NCC(F)(F)F)cn1 [Example 319, 6-{3-endo-[(2-{[5-fluoro-2-(trifluoromethyl)phenyl]oxy}-2-methylpropanoyl)amino]-8-azabicyclo[3.2.1]oct-8-yl}-N-(2,2,2-trifluoroethyl)pyridine-3-carboxamide] | < 200
CC(C)(Oc1ccc(Cl)cc1Cl)C(=O)NC1CC2CCC(C1)N2c1ccc(C(=O)NCC(N2CCOCC2)C(F)(F)F)cn1 (stereo not drawn) [Example 470, 6-(3-endo-{[2-(2,4-dichlorophenoxy)-2-methylpropanoyl]amino}-8-azabicyclo[3.2.1]oct-8-yl)-N-[3,3,3-trifluoro-2-(morpholin-4-yl)propyl]pyridine-3-carboxamide] | < 200
CC(C)(Oc1ccc(Cl)cc1C(N)=O)C(=O)N[C@H]1C[C@H]2CC[C@@H](C1)N2c1ccc(C(=O)NCC(F)(F)F)cn1 [Example 360, 6-(3-endo-{[2-(2-carbamoyl-4-chlorophenoxy)-2-methylpropanoyl]amino}-8-azabicyclo[3.2.1]oct-8-yl)-N-(2,2,2-trifluoroethyl)pyridine-3-carboxamide] | < 200
CC(C)(C(=O)N[C@H]1C[C@H]2CC[C@@H](C1)N2c1ccc(C(=O)NC2CC2)cn1)c1ccccc1 [Example 21, N-cyclopropyl-6-{3-endo-[(2-methyl-2-phenylpropanoyl)amino]-8-azabicyclo[3.2.1]oct-8-yl}pyridine-3-carboxamide] | < 200
CC(C)(Oc1ccc(C(F)(F)F)cn1)C(=O)N[C@H]1C[C@H]2CC[C@@H](C1)N2c1ccc(C(=O)NCC(F)(F)F)cn1 [Example 152, 6-{3-endo-[(2-methyl-2-{[5-(trifluoromethyl)pyridin-2-yl]oxy}propanoyl)amino]-8-azabicyclo[3.2.1]oct-8-yl}-N-(2,2,2-trifluoroethyl)pyridine-3-carboxamide] | < 2000
CC(C)(Oc1ccc(Cl)cc1Cl)C(=O)N[C@H]1C[C@H]2CC[C@@H](C1)N2c1ccc(C(=O)NC2CCSCC2)cn1 [Example 380, 6-(3-endo-{[2-(2,4-dichlorophenoxy)-2-methylpropanoyl]amino}-8-azabicyclo[3.2.1]oct-8-yl)-N-(tetrahydro-2H-thiopyran-4-yl)pyridine-3-carboxamide] | < 200
CC(C)(Oc1ccc(Cl)cc1OC(F)(F)F)C(=O)NC1CC2CCC(C1)N2c1ccc(C(=O)NCC(O)C(F)(F)F)cn1 (stereo not drawn) [Example 448, 6-[3-endo-({2-[4-chloro-2-(trifluoromethoxy)phenoxy]-2-methylpropanoyl}amino)-8-azabicyclo[3.2.1]oct-8-yl]-N-(3,3,3-trifluoro-2-hydroxypropyl)pyridine-3-carboxamide] | < 200
CC(C)NC(=O)c1ccc(N2[C@@H]3CC[C@H]2C[C@@H](NC(=O)C(C)(C)Oc2cc(C(C)(C)O)c(Cl)cc2Cl)C3)nc1 [Example 477, 6-[3-endo-({2-[2,4-dichloro-5-(2-hydroxypropan-2-yl)phenoxy]-2-methylpropanoyl}amino)-8-azabicyclo[3.2.1]oct-8-yl]-N-(propan-2-yl)pyridine-3-carboxamide] | < 200
CC(C)(Oc1ccc(Cl)cc1F)C(=O)N[C@H]1C[C@H]2CC[C@@H](C1)N2c1ccc(S(C)(=O)=O)cn1 [Example 229, 2-[(4-chloro-2-fluorophenyl)oxy]-2-methyl-N-{8-[5-(methylsulfonyl)pyridin-2-yl]-8-azabicyclo[3.2.1]oct-3-endo-yl}propanamide] | < 200
CC(C)(Oc1cc(C(F)(F)F)ccc1F)C(=O)N[C@H]1C[C@H]2CC[C@@H](C1)N2c1ccc(C(N)=O)cn1 [Example 189, 6-{3-endo-[(2-{[2-fIuoro-5-(trifluoromethyl)phenyl]oxy}-2-methylpropanoyl)amino]-8-azabicyclo[3.2.1]oct-8-yl}pyridine-3-carboxamide] | < 200
